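Cultured in 96-well plates, cells were exposed to test compound for 48 hours across five concentrations. Abbreviation: GI50, concentration required for 50% inhibition of growth. Definition used: TGI = concentration required for complete inhibition of growth.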
Legend:
Experiment in all cases: NCI-60 cell line screen, 48 h
SK-MEL-5 melanoma = test system: SK-MEL-5 melanoma
RPMI-8226 leukemia = test system: RPMI-8226 leukemia
NCI/ADR-RES ovarian = test system: NCI/ADR-RES ovarian
OVCAR-5 ovarian = test system: OVCAR-5 ovarian
RXF 393 renal = test system: RXF 393 renal
SF-295 CNS = test system: SF-295 CNS
HCT-116 colon = test system: HCT-116 colon
CCRF-CEM leukemia = test system: CCRF-CEM leukemia
SK-OV-3 ovarian = test system: SK-OV-3 ovarian
TK-10 renal = test system: TK-10 renal

Row | Structure (SMILES) | TGI (SK-MEL-5 melanoma) [µM] | GI50 (RPMI-8226 leukemia) [µM] | TGI (RPMI-8226 leukemia) [µM] | GI50 (NCI/ADR-RES ovarian) [µM] | TGI (NCI/ADR-RES ovarian) [µM] | GI50 (OVCAR-5 ovarian) [µM] | TGI (OVCAR-5 ovarian) [µM] | TGI (RXF 393 renal) [µM] | TGI (SF-295 CNS) [µM] | GI50 (HCT-116 colon) [µM] | TGI (HCT-116 colon) [µM] | GI50 (CCRF-CEM leukemia) [µM] | TGI (CCRF-CEM leukemia) [µM] | TGI (SK-OV-3 ovarian) [µM] | TGI (TK-10 renal) [µM] | GI50 (SK-MEL-5 melanoma) [µM] | GI50 (SF-295 CNS) [µM] | GI50 (SK-OV-3 ovarian) [µM] | GI50 (TK-10 renal) [µM] | GI50 (RXF 393 renal) [µM]
1 | C/C(=N\NC(=S)N1CCN(c2ccccn2)CC1)c1nccs1 | 6.3 | 0.0145 | 23.2 | 0.279 | 2.56 | 0.0544 | 27.4 | 17.4 | 20.7 | 0.0156 | 20.2 | 0.00596 | 0.256 | 18.3 | 20 |  |  |  |  | 
2 | O=C(Nc1ccc(Br)cc1)Nc1nn(C(=O)Nc2ccc(Br)cc2)c2ccccc12 | > 100 | > 51.7 | > 100 | 55.6 | > 100 | > 100 | > 100 | > 45.9 | 66.1 | 16.9 | > 100 | 7.08 | > 22.8 | 54 | > 100 | > 100 | 18 | 16.9 | 39.2 | 
3 | CC[C@]1(O)C[C@@H]2CN(CCc3c([nH]c4ccccc34)[C@@](C(=O)OC)(c3cc4c(cc3OC)N(C)[C@H]3[C@@](O)(C(N)=O)[C@H](O)[C@]5(CC)[C@@H]6C[C@@H]6CN6CC[C@]43[C@@H]65)C2)C1 | 0.0546 | < 0.00333 | > 28.7 | 0.745 | > 9.84 | 0.0912 | > 33.3 | > 33.3 | 2.09 | < 0.00333 |  | < 0.00333 | > 28.8 | > 33.3 | > 33.3 | < 0.00333 | 0.00441 | < 0.00333 | 13 | 0.0153
4 | O=C(O)c1cccc(/C=C/c2ccccc2)c1 | > 100 |  | > 100 |  | > 100 |  | > 100 | > 100 | > 100 |  | > 100 |  | > 100 | > 100 | > 100 |  |  |  |  | 
5 | COC(=O)c1ccc2c(c1)C(=O)c1c-2n(CCCN)c(=O)c2cc(OC)c(OC)cc12 | 34.3 | 5.77 | 12.5 | 42.6 | > 100 | 18.8 | 33.9 | > 52 | 37.3 | 16.5 | 39.7 | 3.78 | 10.2 | 49.4 | 37.3 | 17.4 | 17.9 | 20.3 | 16.9 | 21.6
6 | COc1ccc(/C=C\c2cc(OC)c(OC)c(OC)c2)c(NS(=O)(=O)c2ccc(Cl)cc2)c1O | 0.332 | 0.207 | 20.5 | 0.263 | 22.4 | 2.86 | 33.8 | 10.7 | 12.2 | 0.114 | > 100 | 0.159 | > 100 | 24.3 | 27.7 | 0.0511 | 0.256 | 0.229 | 0.998 | 0.0355
